{"source": "patent US8252737B2", "about": "“Antimicrobial peptides and methods of use” (priority 2004, dated 2012)", "assay": "Circular dichroism spectroscopy of helical structure (benign buffer and 50% TFE)", "format": "physicochemical", "conditions": "25° C.; for % helix 50% TFE / % helix Benign: relative to NAL in 50% TFE; for [θ]222 50% TFE: benign buffer diluted 1:1 (v/v) with TFE; for % helix Benign: benign buffer; for [θ]222 Benign: benign buffer (100 mM KCl, 50 mM PO4 pH 7.0)", "experimental": "To determine the secondary structure of peptides in different environments, circular dichroism (CD) spectra of the peptide analogs were measured under physiologically related pH and ionic strength (100 mM KCl, 50 mM aq. PO4, pH 7 referred to as benign conditions) and also in 50% TFE to mimic the hydrophobic environment of the membrane. […] On the non-polar face, the native L-Val residue was critical in maintaining α-helical structure. […] Even the substitution with L-Ala, which is known to have the highest α-helical propensity of all 20 amino acids (34), could not stabilize the α-helical structure. […] It is noteworthy that, on the non-polar face, the magnitude of the helical content of L-peptides in benign buffer was related to the hydrophobicity of the substituting amino acids, i.e., NLL>NVL>NAL>NSL, NKL, again showing the importance of hydrophobicity on the non-polar face in maintaining the α-helical structure. […] However, whether L- or D-substitutions were made on the non-polar face, high helical structure could be induced by the hydrophobic environment of 50% TFE, a mimic of the membrane's hydrophobicity and α-helix inducing ability (Table 3).\nTo determine the secondary structure of the D-enantiomeric peptides in different environments, CD spectra of the peptide analogs were measured under benign conditions (100 mM KCl, 50 mM KH2PO4/K2HPO4, pH 7.4, referred to as KP buffer) and also in 50% trifluoroethanol (TFE) to mimic the hydrophobic environment of the membrane. […] However, in the presence of 50% TFE, all three L-peptides were fully folded α-helical structures with similar ellipticities and helicity (Table 4).\nCharacterization of Helical Structure—The mean residue molar ellipticities of peptides were determined by circular dichroism (CD) spectroscopy, using a Jasco J-720 spectropolarimeter (Jasco, Easton, Md.), at 25° C. under benign conditions (50 mM KH2PO4/K2HPO4/100 mM KCl, pH 7), as well as in the presence of an α-helix inducing solvent, 2,2,2-trifluoroethanol (TFE) (50 mM KH2PO4/K2HPO4/100 mM KCl, pH 7 buffer/50% TFE). A 10-fold dilution of a ˜500 μM stock solution of the peptide analogs was loaded into a 0.02 cm fused silica cell and its ellipticity scanned from 190 to 250 nm. The values of molar ellipticities of the peptide analogs at a wavelength of 222 nm were used to estimate the relative α-helicity of the peptides.", "note": "Square brackets hold non-standard residues; d marks the D form. Peptide text beside a SMILES is read from it.", "data": [{"smiles": "CC[C@H](C)[C@H](NC(=O)[C@H](C)NC(=O)[C@H](CCCCN)NC(=O)[C@H](CC(C)C)NC(=O)[C@H](C)NC(=O)[C@@H](NC(=O)[C@H](Cc1c[nH]cn1)NC(=O)[C@H](CC(C)C)NC(=O)[C@@H](NC(=O)[C@@H](NC(=O)[C@H](CCCCN)NC(=O)[C@H](C)NC(=O)[C@H](C)NC(=O)[C@H](CO)NC(=O)[C@H](CCCCN)NC(=O)[C@H](Cc1ccccc1)NC(=O)[C@@H](NC(=O)[C@H](CCCCN)NC(=O)[C@H](CC(C)C)NC(=O)[C@H](Cc1ccccc1)NC(=O)[C@H](CO)NC(=O)[C@H](CCCCN)NC(=O)[C@H](Cc1c[nH]c2ccccc12)NC(=O)[C@H](CCCCN)NC(C)=O)[C@@H](C)O)[C@@H](C)O)C(C)C)[C@@H](C)O)C(=O)N[C@@H](CO)C(=O)N[C@@H](CO)C(N)=O", "note": "[NAL]", "values": [{"measurement": "% helix 50% TFE", "result": 100, "unit": "%"}, {"measurement": "[θ]222 50% TFE", "result": "−28,950 deg · cm^2 · dmol^−1"}, {"measurement": "% helix Benign", "result": 12, "unit": "%"}]}, {"smiles": "CC[C@H](C)[C@H](NC(=O)[C@H](C)NC(=O)[C@H](CCCCN)NC(=O)[C@H](CC(C)C)NC(=O)[C@H](C)NC(=O)[C@@H](NC(=O)[C@H](Cc1c[nH]cn1)NC(=O)[C@H](CC(C)C)NC(=O)[C@@H](NC(=O)[C@@H](NC(=O)[C@H](CCCCN)NC(=O)[C@@H](CCCCN)NC(=O)[C@H](C)NC(=O)[C@H](CO)NC(=O)[C@H](CCCCN)NC(=O)[C@H](Cc1ccccc1)NC(=O)[C@@H](NC(=O)[C@H](CCCCN)NC(=O)[C@H](CC(C)C)NC(=O)[C@H](Cc1ccccc1)NC(=O)[C@H](CO)NC(=O)[C@H](CCCCN)NC(=O)[C@H](Cc1c[nH]c2ccccc12)NC(=O)[C@H](CCCCN)NC(C)=O)[C@@H](C)O)[C@@H](C)O)C(C)C)[C@@H](C)O)C(=O)N[C@@H](CO)C(=O)N[C@@H](CO)C(N)=O", "note": "[NKD]", "values": [{"measurement": "% helix 50% TFE", "result": 82, "unit": "%"}, {"measurement": "[θ]222 Benign", "result": "−2,000 deg · cm^2 · dmol^−1"}, {"measurement": "[θ]222 50% TFE", "result": "−23,600 deg · cm^2 · dmol^−1"}, {"measurement": "% helix Benign", "result": 7, "unit": "%"}]}, {"smiles": "CC[C@H](C)[C@H](NC(=O)[C@H](C)NC(=O)[C@H](CCCCN)NC(=O)[C@H](CC(C)C)NC(=O)[C@H](C)NC(=O)[C@@H](NC(=O)[C@H](Cc1c[nH]cn1)NC(=O)[C@H](CC(C)C)NC(=O)[C@@H](NC(=O)[C@@H](NC(=O)[C@H](CCCCN)NC(=O)[C@@H](CO)NC(=O)[C@H](C)NC(=O)[C@H](CO)NC(=O)[C@H](CCCCN)NC(=O)[C@H](Cc1ccccc1)NC(=O)[C@@H](NC(=O)[C@H](CCCCN)NC(=O)[C@H](CC(C)C)NC(=O)[C@H](Cc1ccccc1)NC(=O)[C@H](CO)NC(=O)[C@H](CCCCN)NC(=O)[C@H](Cc1c[nH]c2ccccc12)NC(=O)[C@H](CCCCN)NC(C)=O)[C@@H](C)O)[C@@H](C)O)C(C)C)[C@@H](C)O)C(=O)N[C@@H](CO)C(=O)N[C@@H](CO)C(N)=O", "note": "[NSD] (Ac-KWKSFLKTFKSA[dS]KTVLHTALKAISS-NH2)", "values": [{"measurement": "% helix 50% TFE", "result": 77, "unit": "%"}, {"measurement": "[θ]222 Benign", "result": "−1,700 deg · cm^2 · dmol^−1"}, {"measurement": "[θ]222 50% TFE", "result": "−22,200 deg · cm^2 · dmol^−1"}, {"measurement": "% helix Benign", "result": 6, "unit": "%"}]}, {"smiles": "CC[C@H](C)[C@H](NC(=O)[C@H](C)NC(=O)[C@H](CCCCN)NC(=O)[C@H](CC(C)C)NC(=O)[C@H](C)NC(=O)[C@@H](NC(=O)[C@H](Cc1c[nH]cn1)NC(=O)[C@H](CC(C)C)NC(=O)[C@@H](NC(=O)[C@@H](NC(=O)[C@H](CCCCN)NC(=O)[C@H](NC(=O)[C@H](C)NC(=O)[C@H](CO)NC(=O)[C@H](CCCCN)NC(=O)[C@H](Cc1ccccc1)NC(=O)[C@@H](NC(=O)[C@H](CCCCN)NC(=O)[C@H](CC(C)C)NC(=O)[C@H](Cc1ccccc1)NC(=O)[C@H](CO)NC(=O)[C@H](CCCCN)NC(=O)[C@H](Cc1c[nH]c2ccccc12)NC(=O)[C@H](CCCCN)NC(C)=O)[C@@H](C)O)C(C)C)[C@@H](C)O)C(C)C)[C@@H](C)O)C(=O)N[C@@H](CO)C(=O)N[C@@H](CO)C(N)=O", "note": "[NVD]", "values": [{"measurement": "% helix 50% TFE", "result": 90, "unit": "%"}, {"measurement": "[θ]222 Benign", "result": "−2,800 deg · cm^2 · dmol^−1"}, {"measurement": "[θ]222 50% TFE", "result": "−26,000 deg · cm^2 · dmol^−1"}, {"measurement": "% helix Benign", "result": 10, "unit": "%"}]}]}
